ChEMBL document CHEMBL1201862, “PubChem BioAssay data set” (2004)
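Tested at 5 concentrations; 48 h exposure; 96-well plates; endpoints linearly interpolated, else capped at highest concentration. GI50: concentration for 50% inhibition of growth.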 The source made the active and inactive calls. No stated cut-off is given here; in the data, active = GI50 up to about 1.1 µM and inactive = higher.

Legend:
Test in all cases: NCI anticancer screen, dose series, 48 h
786-0 = system: 786-0
A549 = system: A549
BT-549 = system: BT-549
COLO 205 = system: COLO 205
HCC 2998 = system: HCC 2998
HOP-62 = system: HOP-62
K562 = system: K562
KM12 = system: KM12
LOX IMVI = system: LOX IMVI
NCI-H226 = system: NCI-H226
NCI/ADR-RES = system: NCI/ADR-RES
OVCAR-5 = system: OVCAR-5
OVCAR-8 = system: OVCAR-8
RPMI-8226 = system: RPMI-8226
SF-295 = system: SF-295
SK-OV-3 = system: SK-OV-3
SW-620 = system: SW-620
UACC-62 = system: UACC-62
DU-145 = system: DU-145

Measured: GI50

Cc1ccc(-c2c(C#N)c(-c3ccc([N+](=O)[O-])cc3)c(C#N)c(=O)n2NS(=O)(=O)c2ccc(C)cc2)cc1
inactive: 786-0 65 µM | A549 51.9 µM | BT-549 16.5 µM | COLO 205 80.4 µM | HCC 2998 29.4 µM | HOP-62 67.1 µM | K562 46.2 µM | KM12 30.2 µM | LOX IMVI 33.4 µM | NCI-H226 > 100 µM | NCI/ADR-RES 38.1 µM | OVCAR-5 > 100 µM | OVCAR-8 49.1 µM | RPMI-8226 18.9 µM | SF-295 40.9 µM | SK-OV-3 36.6 µM | SW-620 51.6 µM | UACC-62 31 µM

O=C(/C=C/c1ccsc1)c1ccc(Cl)s1
inactive: 786-0 > 10 µM | A549 > 100 µM | COLO 205 > 100 µM | DU-145 > 100 µM | HCC 2998 31.7 µM | HOP-62 > 100 µM | K562 > 10 µM | KM12 19.5 µM | LOX IMVI 19.4 µM | NCI-H226 53.3 µM | NCI/ADR-RES > 100 µM | OVCAR-8 > 100 µM | RPMI-8226 17.1 µM | SF-295 59.4 µM | SK-OV-3 > 100 µM | SW-620 24.7 µM | UACC-62 > 100 µM

CS(=O)(=O)OCCN1CCC2(CC1)SSC1(CCN(CCOS(C)(=O)=O)CC1)S2
inactive: 786-0 56.9 µM | A549 > 100 µM | BT-549 45.5 µM | COLO 205 28.7 µM | HOP-62 > 100 µM | K562 64.4 µM | KM12 > 100 µM | LOX IMVI 19.8 µM | NCI/ADR-RES > 100 µM | OVCAR-5 24 µM | OVCAR-8 > 100 µM | RPMI-8226 8.87 µM | SF-295 45.4 µM | SK-OV-3 64.4 µM | SW-620 42.3 µM | UACC-62 30.1 µM

COc1ccc2nc3c(C(=O)NCCN(C)C)cccc3nc2c1
inactive: 786-0 7 µM | A549 4.28 µM | COLO 205 4.28 µM | HCC 2998 6.76 µM | HOP-62 7.23 µM | K562 5 µM | KM12 5.98 µM | LOX IMVI 3.34 µM | NCI-H226 6.85 µM | OVCAR-5 11.2 µM | OVCAR-8 5.16 µM | SF-295 6.41 µM | SK-OV-3 9.04 µM | SW-620 3.1 µM | UACC-62 5.55 µM

CN1N=C(c2ccncc2)OC1c1cccc(C(F)(F)F)c1 (centres undefined)
inactive: 786-0 > 100 µM | A549 > 100 µM | COLO 205 > 100 µM | DU-145 > 100 µM | HCC 2998 > 100 µM | HOP-62 > 100 µM | K562 96.8 µM | KM12 > 100 µM | LOX IMVI > 100 µM | NCI-H226 58.9 µM | NCI/ADR-RES > 100 µM | OVCAR-5 > 100 µM | OVCAR-8 > 100 µM | RPMI-8226 > 100 µM | SF-295 > 100 µM | SK-OV-3 > 100 µM | SW-620 > 100 µM | UACC-62 > 100 µM
